Test system: MV-4-11 cells
Assay: Gene expression microarray analysis (Affymetrix PrimeView) and GSEA
Assay type: cell-based, human
Design: RFU PODN (11730768_x_at) / Fold change /veh PODN (11730768_x_at) / RFU LINC00158 (11744669_a_at) / Fold change /veh LINC00158 (11744669_a_at) / RFU DUSP10 (11751237_a_at) / Fold change /veh DUSP10 (11751237_a_at) / RFU ID3 (11757404_x_at) / Fold change /veh ID3 (11757404_x_at) / RFU PLEKHG5 (11737974_s_at) / Fold change /veh PLEKHG5 (11737974_s_at) / RFU LRRC4B (11730491_at) / Fold change /veh LRRC4B (11730491_at) / RFU GIMAP4 (11747438_a_at) / Fold change /veh GIMAP4 (11747438_a_at) / RFU KRT8 (11758183_x_at) / Fold change /veh KRT8 (11758183_x_at) / RFU CNN1 (11734310_a_at) / Fold change /veh CNN1 (11734310_a_at) / RFU VPS37D (11726825_at) / Fold change /veh VPS37D (11726825_at) / RFU C10orf10 (11716522_x_at) / Fold change /veh C10orf10 (11716522_x_at) / RFU KIR2DL2 /// KIR2DL4 /// KIR2DL5A /// KIR2DL5B /// KIR2DS1 /// KIR2DS2 /// KIR2DS3 /// KIR2DS4 /// KIR3DL3 /// KIR3DL3 /// KIR3DS1 (11738374_at) / Fold change /veh KIR2DL2 /// KIR2DL4 /// KIR2DL5A /// KIR2DL5B /// KIR2DS1 /// KIR2DS2 /// KIR2DS3 /// KIR2DS4 /// KIR3DL3 /// KIR3DL3 /// KIR3DS1 (11738374_at) / RFU C1QL1 (11718748_at) / Fold change /veh C1QL1 (11718748_at) / RFU TMPRSS4 (11747572_a_at) / Fold change /veh TMPRSS4 (11747572_a_at) / RFU HAMP (11756126_x_at) / Fold change /veh HAMP (11756126_x_at) / RFU RNFT2 (11725882_a_at) / Fold change /veh RNFT2 (11725882_a_at) / RFU NR4A2 (11747474_a_at) / Fold change /veh NR4A2 (11747474_a_at) / RFU ABCC12 (11746883_a_at) / Fold change /veh ABCC12 (11746883_a_at) / RFU TMEM136 (11760407_x_at) / Fold change /veh TMEM136 (11760407_x_at) / RFU CLDN22 /// WWC2 (11732394_at) / Fold change /veh CLDN22 /// WWC2 (11732394_at) / RFU HLA-DPB1 (11760878_x_at) / Fold change /veh HLA-DPB1 (11760878_x_at) / RFU SPINT1 (11716480_a_at) / Fold change /veh SPINT1 (11716480_a_at) / RFU GAP43 (11754022_s_at) / Fold change /veh GAP43 (11754022_s_at) / RFU A4GNT (11735810_at) / Fold change /veh A4GNT (11735810_at) / RFU PRB3 (11715151_x_at) / Fold change /veh PRB3 (11715151_x_at) / RFU TUBB4B (11761932_at) / Fold change /veh TUBB4B (11761932_at) / RFU CAPN14 (11732068_a_at) / Fold change /veh CAPN14 (11732068_a_at) / RFU TMCC2 (11721928_a_at) / Fold change /veh TMCC2 (11721928_a_at) / RFU IRGQ (11745062_a_at) / Fold change /veh IRGQ (11745062_a_at) / RFU FAM174B (11720279_a_at) / Fold change /veh FAM174B (11720279_a_at) / RFU TMPRSS4 (11748680_a_at) / Fold change /veh TMPRSS4 (11748680_a_at) / RFU FAM212B (11763350_a_at) / Fold change /veh FAM212B (11763350_a_at) / RFU PLEKHG5 (11743358_a_at) / Fold change /veh PLEKHG5 (11743358_a_at) / RFU ZSCAN30 (11745921_a_at) / Fold change /veh ZSCAN30 (11745921_a_at) / RFU CMKLR1 (11741424_a_at) / Fold change /veh CMKLR1 (11741424_a_at) / RFU LOC101060620 /// MAPK8IP1 (11723275_at) / Fold change /veh LOC101060620 /// MAPK8IP1 (11723275_at) / RFU SPTSSB (11747773_x_at) / Fold change /veh SPTSSB (11747773_x_at) / RFU PRSS12 (11739890_at) / Fold change /veh PRSS12 (11739890_at) / RFU BIN1 (11741810_x_at) / Fold change /veh BIN1 (11741810_x_at) / RFU WNT11 (11732464_a_at) / Fold change /veh WNT11 (11732464_a_at) / RFU C10orf10 (11716521_a_at) / Fold change /veh C10orf10 (11716521_a_at) / RFU C5orf56 (11738089_at) / Fold change /veh C5orf56 (11738089_at) / RFU CYB561 (11721691_x_at) / Fold change /veh CYB561 (11721691_x_at) / RFU ANKRD19P (11752326_a_at) / Fold change /veh ANKRD19P (11752326_a_at) / RFU OR2T12 /// OR2T33 /// OR2T8 (11738714_s_at) / Fold change /veh OR2T12 /// OR2T33 /// OR2T8 (11738714_s_at) / RFU VCAN (11748164_a_at) / Fold change /veh VCAN (11748164_a_at) / RFU JSRP1 (11732532_at) / Fold change /veh JSRP1 (11732532_at) / RFU KRTAP10-11 (11738290_x_at) / Fold change /veh KRTAP10-11 (11738290_x_at) / RFU MYO3A (11730013_a_at) / Fold change /veh MYO3A (11730013_a_at) / RFU EBF3 (11725865_a_at) / Fold change /veh EBF3 (11725865_a_at) / RFU CAMK2N1 (11719241_x_at) / Fold change /veh CAMK2N1 (11719241_x_at) / RFU C5orf56 (11738088_a_at) / Fold change /veh C5orf56 (11738088_a_at) / RFU OLFML3 (11715873_a_at) / Fold change /veh OLFML3 (11715873_a_at) / RFU LOC100653217 /// NTM (11731650_a_at) / Fold change /veh LOC100653217 /// NTM (11731650_a_at) / RFU MAPK11 (11762145_a_at) / Fold change /veh MAPK11 (11762145_a_at) / RFU FIZ1 (11724087_x_at) / Fold change /veh FIZ1 (11724087_x_at) / RFU OASL (11726364_x_at) / Fold change /veh OASL (11726364_x_at) / RFU SOX15 (11748057_x_at) / Fold change /veh SOX15 (11748057_x_at) / RFU CD79A (11719716_a_at) / Fold change /veh CD79A (11719716_a_at) / RFU HIST1H1D (11736915_at) / Fold change /veh HIST1H1D (11736915_at) / RFU CASKIN2 (11723855_a_at) / Fold change /veh CASKIN2 (11723855_a_at) / RFU LOC730098 (11760151_x_at) / Fold change /veh LOC730098 (11760151_x_at) / RFU OR4N2 (11742367_at) / Fold change /veh OR4N2 (11742367_at) / RFU PRRT2 (11749266_a_at) / Fold change /veh PRRT2 (11749266_a_at) / RFU SNX32 (11753110_a_at) / Fold change /veh SNX32 (11753110_a_at) / RFU CDHR5 (11726645_a_at) / Fold change /veh CDHR5 (11726645_a_at) / RFU RCAN1 (11760418_a_at) / Fold change /veh RCAN1 (11760418_a_at) / RFU FAM167A (11723789_a_at) / Fold change /veh FAM167A (11723789_a_at) / RFU FAM26E (11764081_at) / Fold change /veh FAM26E (11764081_at) / RFU ISYNA1 (11749810_s_at) / Fold change /veh ISYNA1 (11749810_s_at) / RFU ACY1 (11761880_at) / Fold change /veh ACY1 (11761880_at) / RFU 11764098_at / Fold change /veh 11764098_at / RFU SAMD14 (11745864_x_at) / Fold change /veh SAMD14 (11745864_x_at) / RFU NPB (11741838_a_at) / Fold change /veh NPB (11741838_a_at) / RFU TMPRSS6 (11731388_a_at) / Fold change /veh TMPRSS6 (11731388_a_at) / RFU KRTAP10-2 (11738614_at) / Fold change /veh KRTAP10-2 (11738614_at) / RFU ARHGAP8 /// PRR5-ARHGAP8 (11727945_x_at) / Fold change /veh ARHGAP8 /// PRR5-ARHGAP8 (11727945_x_at) / RFU KRTAP5-7 /// NADSYN1 (11734609_at) / Fold change /veh KRTAP5-7 /// NADSYN1 (11734609_at) / RFU RASL12 (11751679_a_at) / Fold change /veh RASL12 (11751679_a_at) / RFU CDKN2B (11736163_a_at) / Fold change /veh CDKN2B (11736163_a_at) / RFU PRF1 (11729649_at) / Fold change /veh PRF1 (11729649_at) / RFU, ZNF638 /// ZNF638-IT1 / Fold change vs veh, ZNF638 /// ZNF638-IT1 / RFU, PANK3 / Fold change vs veh, PANK3 / RFU, SH3YL1 / Fold change vs veh, SH3YL1 / RFU, ZEB2 / Fold change vs veh, ZEB2 / RFU, NRIP1 / Fold change vs veh, NRIP1 / RFU, PTTG1IP / Fold change vs veh, PTTG1IP / RFU, CAPN2 / Fold change vs veh, CAPN2 / RFU, MED14 / Fold change vs veh, MED14 / RFU, SNORA58 / Fold change vs veh, SNORA58 / RFU, C1orf63 / Fold change vs veh, C1orf63 / RFU, LRRFIP1 / Fold change vs veh, LRRFIP1 / RFU, NDUFAF7 / Fold change vs veh, NDUFAF7 / RFU, SLC12A2 / Fold change vs veh, SLC12A2 / RFU, IBTK / Fold change vs veh, IBTK / RFU, ESF1 / Fold change vs veh, ESF1 / Fold change vs veh, TMEM50B / RFU, TAOK1 / Fold change vs veh, TAOK1 / RFU, ACBD3 / Fold change vs veh, ACBD3 / RFU, TMA16 / Fold change vs veh, TMA16 / RFU, RWDD3 / Fold change vs veh, RWDD3 / RFU, BCAT1 / Fold change vs veh, BCAT1 / RFU, EDEM3 / Fold change vs veh, EDEM3 / RFU, TMEM33 / Fold change vs veh, TMEM33 / RFU, WDR75 / Fold change vs veh, WDR75 / RFU, AHCTF1 / Fold change vs veh, AHCTF1 / RFU, TFRC / Fold change vs veh, TFRC / RFU, ZDHHC17 / Fold change vs veh, ZDHHC17 / RFU, NOM1 / Fold change vs veh, NOM1 / RFU, ARL8B / Fold change vs veh, ARL8B / RFU, ZBTB11 / Fold change vs veh, ZBTB11 / RFU, TAMM41 / Fold change vs veh, TAMM41 / RFU, KIAA1704 /// LOC100996395 / Fold change vs veh, KIAA1704 /// LOC100996395 / RFU, ING1 / Fold change vs veh, ING1 / RFU, TRMT61B / Fold change vs veh, TRMT61B / RFU, FUBP3 / Fold change vs veh, FUBP3 / RFU, TP53 / Fold change vs veh, TP53 / RFU, TNKS2 / Fold change vs veh, TNKS2 / RFU, ZFP14 / Fold change vs veh, ZFP14 / RFU, ACTR2 / Fold change vs veh, ACTR2 / RFU, PPP3R1 / Fold change vs veh, PPP3R1 / RFU, PIK3R1 / Fold change vs veh, PIK3R1 / RFU, HNRNPA1 / Fold change vs veh, HNRNPA1 / RFU, RNF170 / Fold change vs veh, RNF170 / RFU, ZNF28 / Fold change vs veh, ZNF28 / RFU, RNGTT / Fold change vs veh, RNGTT / RFU, OGT / Fold change vs veh, OGT / RFU, BRD1 / Fold change vs veh, BRD1 / RFU, MARS / Fold change vs veh, MARS / RFU, ZNF655 / Fold change vs veh, ZNF655 / RFU, FAHD1 / Fold change vs veh, FAHD1 / RFU, BDP1 / Fold change vs veh, BDP1 / RFU, LRRCC1 / Fold change vs veh, LRRCC1 / RFU, ARID1A / Fold change vs veh, ARID1A / RFU, ZNF146 / Fold change vs veh, ZNF146 / RFU, ZNF330 / Fold change vs veh, ZNF330 / RFU, GPN3 / Fold change vs veh, GPN3 / RFU, C9orf123 / Fold change vs veh, C9orf123 / RFU, N4BP2L2 / Fold change vs veh, N4BP2L2 / RFU, ARFIP1 / Fold change vs veh, ARFIP1 / RFU, FAM179B / Fold change vs veh, FAM179B / RFU, BCL10 / Fold change vs veh, BCL10 / RFU, UHRF1BP1L / Fold change vs veh, UHRF1BP1L / RFU, BET1 / Fold change vs veh, BET1 / RFU, CNOT2 / Fold change vs veh, CNOT2 / RFU, ZNF268 / Fold change vs veh, ZNF268 / Fold change vs veh, ZNF507 / RFU, DGCR2 / Fold change vs veh, DGCR2 / RFU, WDSUB1 / Fold change vs veh, WDSUB1 / Fold change vs veh, HSP90B1 /// MIR3652 / RFU, ADSS / Fold change vs veh, ADSS / RFU, GK / Fold change vs veh, GK / RFU, ZNF148 / Fold change vs veh, ZNF148 / RFU, TAF9 / Fold change vs veh, TAF9 / RFU, SLC1A5 / Fold change vs veh, SLC1A5 / RFU, SLMO2 / Fold change vs veh, SLMO2 / RFU, ABCC4 / Fold change vs veh, ABCC4 / RFU, LOC101060439 /// RAP1B / Fold change vs veh, LOC101060439 /// RAP1B / RFU, RFX7 / Fold change vs veh, RFX7 / RFU, GTPBP10 / Fold change vs veh, GTPBP10 / RFU, CNEP1R1 / Fold change vs veh, CNEP1R1 / RFU, BIVM-ERCC5 /// ERCC5 / Fold change vs veh, BIVM-ERCC5 /// ERCC5 / RFU, ILF3 / Fold change vs veh, ILF3 / RFU 11762660_at / Fold change /veh 11762660_at / RFU VCAN (11757783_s_at) / Fold change /veh VCAN (11757783_s_at) / RFU DDX43 (11728927_at) / Fold change /veh DDX43 (11728927_at) / RFU KRT8 (11758188_x_at) / Fold change /veh KRT8 (11758188_x_at) / RFU NKD1 (11759106_at) / Fold change /veh NKD1 (11759106_at) / RFU SRD5A1 (11742802_a_at) / Fold change /veh SRD5A1 (11742802_a_at) / RFU TPSAB1 /// TPSB2 (11721975_s_at) / Fold change /veh TPSAB1 /// TPSB2 (11721975_s_at) / RFU GSTM3 (11746129_a_at) / Fold change /veh GSTM3 (11746129_a_at) / RFU IL23R (11737362_x_at) / Fold change /veh IL23R (11737362_x_at) / RFU TMEM51 (11727254_a_at) / Fold change /veh TMEM51 (11727254_a_at) / RFU PIWIL2 (11732686_x_at) / Fold change /veh PIWIL2 (11732686_x_at) / RFU ORM1 (11744905_x_at) / Fold change /veh ORM1 (11744905_x_at) / RFU CCDC152 (11743942_at) / Fold change /veh CCDC152 (11743942_at) / RFU ECM1 (11717891_a_at) / Fold change /veh ECM1 (11717891_a_at) / RFU IL23R (11748794_a_at) / Fold change /veh IL23R (11748794_a_at) / RFU TNFAIP8L3 (11732012_x_at) / Fold change /veh TNFAIP8L3 (11732012_x_at) / RFU MBOAT4 (11741988_at) / Fold change /veh MBOAT4 (11741988_at) / RFU 11764193_at / Fold change /veh 11764193_at / RFU TMEM53 (11763286_at) / Fold change /veh TMEM53 (11763286_at) / RFU MAGEB2 (11727129_at) / Fold change /veh MAGEB2 (11727129_at) / RFU TMEM200A (11744735_a_at) / Fold change /veh TMEM200A (11744735_a_at) / RFU CCDC152 (11751479_a_at) / Fold change /veh CCDC152 (11751479_a_at) / RFU FAM211A (11726209_a_at) / Fold change /veh FAM211A (11726209_a_at) / RFU RGS16 (11746705_a_at) / Fold change /veh RGS16 (11746705_a_at) / RFU VCAN (11755009_s_at) / Fold change /veh VCAN (11755009_s_at) / RFU RHOB (11743442_s_at) / Fold change /veh RHOB (11743442_s_at) / RFU RGS16 (11720943_a_at) / Fold change /veh RGS16 (11720943_a_at) / RFU RGS16 (11720944_at) / Fold change /veh RGS16 (11720944_at) / RFU, VPS4B / Fold change vs veh, VPS4B / RFU, CREB1 / Fold change vs veh, CREB1 / RFU, DNAJC13 / Fold change vs veh, DNAJC13 / RFU, GNAQ / Fold change vs veh, GNAQ / RFU, CDK5R1 / Fold change vs veh, CDK5R1 / RFU, ZRANB3 / Fold change vs veh, ZRANB3 / RFU, CUL4A / Fold change vs veh, CUL4A / RFU, CCNY / Fold change vs veh, CCNY / RFU, UFL1 / Fold change vs veh, UFL1 / RFU, COG3 / Fold change vs veh, COG3 / RFU, DIAPH2 / Fold change vs veh, DIAPH2 / RFU, SKA2 / Fold change vs veh, SKA2 / RFU, AFF3 / Fold change vs veh, AFF3 / RFU, LMF1 / Fold change vs veh, LMF1 / RFU, IPO11 / Fold change vs veh, IPO11 / RFU, DFFB / Fold change vs veh, DFFB / RFU, FOXP1 / Fold change vs veh, FOXP1 / RFU, CARD8 / Fold change vs veh, CARD8 / RFU, STRN3 / Fold change vs veh, STRN3 / RFU, ADK / Fold change vs veh, ADK / RFU, RASSF2 / Fold change vs veh, RASSF2 / RFU, WIPF1 / Fold change vs veh, WIPF1 / RFU, LARP1B / Fold change vs veh, LARP1B / RFU, RASA1 / Fold change vs veh, RASA1 / RFU, RB1 / Fold change vs veh, RB1 / RFU, PPFIA1 / Fold change vs veh, PPFIA1 / RFU, MAT2A / Fold change vs veh, MAT2A / RFU, CCT5 / Fold change vs veh, CCT5 / RFU, WDR92 / Fold change vs veh, WDR92 / RFU, CUX1 / Fold change vs veh, CUX1 / RFU, TTC7A / Fold change vs veh, TTC7A / RFU, TMEM135 / Fold change vs veh, TMEM135 / RFU, DEPTOR / Fold change vs veh, DEPTOR / RFU, CPM / Fold change vs veh, CPM / RFU, DNAJB6 / Fold change vs veh, DNAJB6 / RFU, CACNA2D3 / Fold change vs veh, CACNA2D3 / RFU, DTX4 / Fold change vs veh, DTX4 / RFU, TFCP2 / Fold change vs veh, TFCP2 / RFU, GMCL1 /// GMCL1P1 / Fold change vs veh, GMCL1 /// GMCL1P1 / RFU, AEBP2 / Fold change vs veh, AEBP2 / RFU, SNHG1 /// SNORD22 /// SNORD25 /// SNORD26 /// SNORD27 /// SNORD28 /// SNORD29 /// SNORD31 / Fold change vs veh, SNHG1 /// SNORD22 /// SNORD25 /// SNORD26 /// SNORD27 /// SNORD28 /// SNORD29 /// SNORD31 / Fold change (Aza/veh), C12orf56 (ProbeSet 11735607_a_at) / Fold change (ACY-1035/veh), C12orf56 (ProbeSet 11735607_a_at) / Fold change (Aza/veh), FGFR1OP (ProbeSet 11751329_s_at) / Fold change (ACY-1035/veh), FGFR1OP (ProbeSet 11751329_s_at) / Fold change (Aza/veh), VPS36 (ProbeSet 11739960_a_at) / Fold change (ACY-1035/veh), VPS36 (ProbeSet 11739960_a_at) / RFU SYPL1 (11715823_x_at) / Fold change /veh SYPL1 (11715823_x_at) / RFU IGFBP7 (11715501_s_at) / Fold change /veh IGFBP7 (11715501_s_at) / RFU REEP3 (11722064_at) / Fold change /veh REEP3 (11722064_at) / RFU IGLL1 (11728026_x_at) / Fold change /veh IGLL1 (11728026_x_at): dose or concentration left out as unconfirmed
Settings: MV-4-11 cells, 48 hours

## Nc1ccc(-c2cccs2)cc1NC(=O)c1ccc2c(c1)cc(C1CC1)n2CCN1CCOCC1 [ACY-1035]
  RFU RHOB (11743442_s_at): 104.18 RFU

Source: publication PMC5218480 (PLoS ONE, 2017)
